The text below walks through data of patent US20210238170A1, “5,5-Difluoro- and 5-Fluoro-5-Methyl-C-Glycoside Derivatives Useful As Dual SGLT1 / SGLT2 Modulators” (Janssen Pharmaceutica NV, priority 2018, published 2021).

Like-named read-outs stand apart in the source and are kept apart here.

One assay has as its system SD rats. Briefly: Oral Glucose Tolerance Test (OGTT) in SD rats: blood glucose excursion AUC and urine glucose excretion. The format is in vivo, rat. To be noted: mean ± SE; for Urine Glucose Excretion (g/0-4 hr): n = 8. As for the experimental part:
Biological Example 2: In Vivo Assay
Oral Glucose Tolerance Test (OGTT) in SD Rats
Overnight fasted SD rats were allocated into vehicle or test compound treatment groups based on their body weights (n=8 in each group). The animals were orally dosed with vehicle or test compound at a volume of 10 ml/kg at 30-minute prior to OGTT. The animals then received an OGTT challenge with 2 g/kg (50% glucose solution at the volume of 4 ml/kg, orally). The animals were immediately transferred into metabolic cages after they were dosed with the glucose. Blood glucose levels were measured at 0 (pre-OGTT), 30, 60, and 120 minutes after OGTT using one-touch Glucometer. Blood glucose excursion AUC (area under the curve of blood glucose) was determined from the blood glucose levels measured at the timepoints.
Table 9 below, presents the measured efficacy of the test compound(s), expressed as the percentage (%) of blood glucose AUC vs that in vehicle group. The data is interpreted such that, the smaller the percentage of blood glucose AUC of compound vs vehicle, the greater the efficacy of the test compound. Urine volume and urine glucose concentrations (tested by using Olympus system with Genzyme diagnostics assay reagent) were measured to determine the urine glucose excretion (UGE) in 4-hr period after OGTT (0-4 hours).

The next assay concerns the target T1, human SGLT2 (Homo sapiens, UniProt P31639).
T1 construct: expressed in transfected cells
T1 sequence (P31639 1-672): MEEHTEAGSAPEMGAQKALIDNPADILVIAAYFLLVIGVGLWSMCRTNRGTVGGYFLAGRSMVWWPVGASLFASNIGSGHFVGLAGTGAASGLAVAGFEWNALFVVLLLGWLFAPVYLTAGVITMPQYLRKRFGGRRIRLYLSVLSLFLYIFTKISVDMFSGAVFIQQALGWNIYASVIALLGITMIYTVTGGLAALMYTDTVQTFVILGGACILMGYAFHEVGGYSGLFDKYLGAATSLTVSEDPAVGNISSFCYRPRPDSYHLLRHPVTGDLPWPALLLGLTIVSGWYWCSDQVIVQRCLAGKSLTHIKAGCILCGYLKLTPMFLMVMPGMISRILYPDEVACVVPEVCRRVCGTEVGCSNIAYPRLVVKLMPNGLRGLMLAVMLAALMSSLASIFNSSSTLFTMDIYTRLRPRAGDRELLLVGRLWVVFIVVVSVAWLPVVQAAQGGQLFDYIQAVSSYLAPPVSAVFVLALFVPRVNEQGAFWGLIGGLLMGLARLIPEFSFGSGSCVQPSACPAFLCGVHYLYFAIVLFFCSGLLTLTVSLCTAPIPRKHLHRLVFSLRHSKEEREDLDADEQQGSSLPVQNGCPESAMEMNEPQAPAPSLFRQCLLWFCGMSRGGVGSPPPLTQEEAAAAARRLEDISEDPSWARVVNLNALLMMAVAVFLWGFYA
Briefly: SGLT2 in vitro assay: Na-dependent 14C-AMG uptake in CHO-K1 cells stably expressing human SGLT2. The following applies: for inhibition at 0.3 µM: read-out: SGLT2 % Inh @ 0.3 μM. In kind it is cell-based. In outline:
(§1)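 Sodium-dependent uptake of 14C-α-methyl-glucopyranoside ([…]) over 2 h at 37°C was counted by scintillation in stable human SGLT2- or SGLT1-CHO-K1 lines pretreated with 10 mM Na-butyrate. Compounds at 0.001–10 μM were preincubated for 10 min in pH 7.4 buffer with 137 mM NaCl; output is %-inhibition or IC50.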

In a further assay the target is T2, human SGLT1 (Homo sapiens, UniProt P13866).
T2 construct: expressed in transfected cells
T2 sequence (P13866 1-664): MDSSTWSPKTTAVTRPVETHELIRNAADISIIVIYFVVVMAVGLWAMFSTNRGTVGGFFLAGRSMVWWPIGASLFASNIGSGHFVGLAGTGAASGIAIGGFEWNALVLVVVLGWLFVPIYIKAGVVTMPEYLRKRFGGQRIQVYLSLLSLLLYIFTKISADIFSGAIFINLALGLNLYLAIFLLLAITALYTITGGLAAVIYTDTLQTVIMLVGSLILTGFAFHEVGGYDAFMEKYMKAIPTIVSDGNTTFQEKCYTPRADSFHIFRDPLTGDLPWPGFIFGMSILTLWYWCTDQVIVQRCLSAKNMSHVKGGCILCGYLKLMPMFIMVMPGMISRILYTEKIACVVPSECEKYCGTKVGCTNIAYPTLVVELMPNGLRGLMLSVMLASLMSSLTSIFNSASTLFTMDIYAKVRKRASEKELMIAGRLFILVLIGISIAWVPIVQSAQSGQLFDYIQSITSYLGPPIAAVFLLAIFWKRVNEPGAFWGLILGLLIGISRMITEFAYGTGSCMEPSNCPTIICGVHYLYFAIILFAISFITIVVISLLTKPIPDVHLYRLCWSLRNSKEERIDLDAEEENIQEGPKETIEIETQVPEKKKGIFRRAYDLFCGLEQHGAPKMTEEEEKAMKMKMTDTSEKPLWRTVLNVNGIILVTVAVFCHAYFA
In words: SGLT1 in vitro assay: Na-dependent 14C-AMG uptake in CHO-K1 cells stably expressing human SGLT1. In kind it is cell-based. To be noted: for inhibition at 0.3 µM: read-out: SGLT1 % Inh @ 0.3 μM. The method in brief:
as §1

[1] abbreviates: Rattus norvegicus, 2 h, oral dose 1 mg/kg, n = 8, read-out: 120-min Blood Glucose AUC vs Vehicle (%).
[2] abbreviates: Rattus norvegicus, 2 h, oral dose 10 mg/kg, n = 8, read-out: 120-min Blood Glucose AUC vs Vehicle (%).
[3] abbreviates: 0.3 μM, CHO-K1 cells expressing human SGLT2.
Where [4] appears, read: CHO-K1 cells expressing human SGLT2, 14C-AMG uptake.
Setting [5] is: 0.3 μM, CHO-K1 cells expressing human SGLT1.
Where [6] appears, read: CHO-K1 cells expressing human SGLT1, 14C-AMG uptake.
Setting [7] is: CHO-K1 cells stably expressing human SGLT2, 14C-AMG uptake, compounds of formula (I) where R0 is fluoro.
Where [8] appears, read: CHO-K1 cells stably expressing human SGLT1, 14C-AMG uptake, compounds of formula (I) where R0 is fluoro.
The mark [9] stands for this setting: @ 0.3 μM, CHO-K1 cells stably expressing human SGLT2, 14C-AMG uptake.
Where [10] appears, read: @ 0.3 μM, CHO-K1 cells stably expressing human SGLT1, 14C-AMG uptake.

In the case of `C[C@]1(F)[C@H](O)[C@@H](O)[C@H](c2cc(Cc3ccc4c(c3)OCCO4)c(Cl)cc2O)O[C@@H]1CO` [Compound 3, (2S,3R,4R,5S,6R)-2-[4-chloro-5-(2,3-dihydro-1,4-benzodioxin-6-ylmethyl)-2-hydroxy-phenyl]-5-fluoro-6-(hydroxymethyl)-5-methyl-tetrahydropyran-3,4-diol], the response vs control in vivo at 1 mg/kg in the assay on SD rats (setting [1]) came to 91.3 ± 2%. Besides, in the assay with SD rats (setting [2]), the response vs control in vivo at 10 mg/kg is 69.3 ± 1.9%. For the same compound, the “Urine Glucose Excretion (g/0-4 hr)” value with SD rats (oral dose 1 mg/kg) and in the assay on SD rats (oral dose 10 mg/kg) was 0.001 g/0-4 hr in each case. In addition, the inhibition at 0.3 µM at human SGLT2 (setting [3]) came out at 89.4%; on human SGLT1 (setting [5]), 45.3%. For the same compound, the half-inhibitory concentration (IC50) (usually the point on the concentration scale where inhibition reaches its midpoint) against human SGLT2 (setting [4]) worked out at 2.1 nM; against human SGLT1 (setting [6]) it was 269 nM.
On to `COc1cc(O)c([C@@H]2O[C@H](CO)[C@@](C)(F)[C@H](O)[C@H]2O)cc1Cc1ccc2c(c1)OCCO2` [Compound 6, (2S,3R,4R,5S,6R)-2-(5-((2,3-dihydrobenzo[b][1,4]dioxin-6-yl)methyl)-2-hydroxy-4-methoxyphenyl)-5-fluoro-6-(hydroxymethyl)-5-methyl-tetrahydro-2H-pyran-3,4-diol], for which, in the assay with SD rats (setting [1]), the response vs control in vivo at 1 mg/kg worked out at 71.6 ± 0.7%. The response vs control in vivo at 10 mg/kg in the assay on SD rats (setting [2]) came to 55.5 ± 1.7%. Also, the entries for the “Urine Glucose Excretion (g/0-4 hr)” value with SD rats (oral dose 1 mg/kg) and in the assay with SD rats (oral dose 10 mg/kg) were 0.000 g/0-4 hr and 0.047 ± 0.008 g/0-4 hr, respectively. The inhibition at 0.3 µM on human SGLT2 (setting [3]) amounted to 92.8%; at human SGLT1 (setting [5]), 72.6%. Also, the figures for the concentration for half-maximal inhibition (IC50) against human SGLT2 (setting [4]) and against human SGLT1 (setting [6]) were 4.3 nM and 37 nM, respectively.
Regarding `Cc1cc(O)c([C@@H]2O[C@H](CO)C(F)(F)[C@H](O)[C@H]2O)cc1Cc1cc2ccccc2s1` [Compound 25, (2S,3R,4R,6R)-2-(5-(benzo[b]thiophen-2-ylmethyl)-2-hydroxy-4-methylphenyl)-5,5-difluoro-6-(hydroxymethyl)tetrahydro-2H-pyran-3,4-diol], the response vs control in vivo at 1 mg/kg in the assay on SD rats (setting [1]) was 67.8 ± 1.7%. The response vs control in vivo at 10 mg/kg in the assay with SD rats (setting [2]) was 36.5 ± 1.1%. The “Urine Glucose Excretion (g/0-4 hr)” value came out at 0.001 g/0-4 hr in the assay on SD rats (oral dose 1 mg/kg) and 0.499 ± 0.04 g/0-4 hr with SD rats (oral dose 10 mg/kg). Further, the IC50 was found to be 3.8 nM against human SGLT2 (setting [7]) and 56 nM against human SGLT1 (setting [8]).
With `CCc1ccc(Cc2cc([C@@H]3O[C@H](CO)C(F)(F)[C@H](O)[C@H]3O)c(O)c3c2OCC3)cc1` [Compound 30], the response vs control in vivo at 1 mg/kg with SD rats (setting [1]) is 86 ± 3.4%. The response vs control in vivo at 3 mg/kg in the assay with SD rats (Rattus norvegicus, 2 h, oral dose 3 mg/kg, n = 8, read-out: 120-min Blood Glucose AUC vs Vehicle (%)) worked out at 80.3 ± 1.6%. The response vs control in vivo at 10 mg/kg with SD rats (setting [2]) was determined as 72 ± 2.3%. Moreover, the entries for the “Urine Glucose Excretion (g/0-4 hr)” value in the assay with SD rats (oral dose 1 mg/kg), in the assay on SD rats (oral dose 3 mg/kg) and in the assay on SD rats (oral dose 10 mg/kg) were 0.001 ± 0.0001 g/0-4 hr, 0.001 ± 0.0002 g/0-4 hr and 0.001 ± 0.0002 g/0-4 hr, respectively. In addition, the inhibition at 0.3 µM on human SGLT2 (setting [9]) was found to be 62.4%; at human SGLT1 (setting [10]) it was 56.7%. The half-maximal inhibitory concentration (IC50) amounted to 7.2 nM on human SGLT2 (setting [7]) and 145 nM against human SGLT1 (setting [8]).
For `CCc1cc(O)c([C@@H]2O[C@H](CO)C(F)(F)[C@H](O)[C@H]2O)cc1Cc1ccc(OC)cc1` [Compound 88, (2S,3R,4R,6R)-2-(4-ethyl-2-hydroxy-5-(4-methoxybenzyl)phenyl)-5,5-difluoro-6-(hydroxymethyl)-tetrahydro-2H-pyran-3,4-diol], the response vs control in vivo at 1 mg/kg with SD rats (setting [1]) came out at 65.9 ± 1.8%. Moreover, in the assay with SD rats (setting [2]), the response vs control in vivo at 10 mg/kg is 41.6 ± 1.1%. The “Urine Glucose Excretion (g/0-4 hr)” value in the assay on SD rats (oral dose 1 mg/kg) worked out at 0.046 ± 0.014 g/0-4 hr; in the assay on SD rats (oral dose 10 mg/kg), 0.349 ± 0.023 g/0-4 hr. Moreover, the results for the inhibition at 0.3 µM at human SGLT2 (setting [9]) and on human SGLT1 (setting [10]) were 88.6% and 77.2%, respectively. Moreover, the concentration for half-maximal inhibition (IC50) against human SGLT2 (setting [7]) turned out to be 1.7 nM; on human SGLT1 (setting [8]), 41 nM.
`COc1ccc(Cc2cc([C@@H]3O[C@H](CO)C(F)(F)[C@H](O)[C@H]3O)c(O)cc2OC)cc1` [Compound 91, (2S,3R,4R,6R)-5,5-difluoro-2-(2-hydroxy-4-methoxy-5-(4-methoxybenzyl)phenyl)-6-(hydroxymethyl)-tetrahydro-2H-pyran-3,4-diol]: the response vs control in vivo at 1 mg/kg with SD rats (setting [1]) stood at 61.6 ± 3.9%. Moreover, the response vs control in vivo at 10 mg/kg in the assay on SD rats (setting [2]) came to 41.3 ± 2.3%. Also, the “Urine Glucose Excretion (g/0-4 hr)” value in the assay with SD rats (oral dose 1 mg/kg) amounted to 0.026 ± 0.007 g/0-4 hr; in the assay with SD rats (oral dose 10 mg/kg), 0.089 ± 0.01 g/0-4 hr. For the same compound, the inhibition at 0.3 µM on human SGLT2 (setting [9]) was found to be 76.3%; at human SGLT1 (setting [10]), 74.3%. The half-inhibitory concentration (IC50) worked out at 3.2 nM on human SGLT2 (setting [7]) and 74 nM on human SGLT1 (setting [8]).
